Reference: patent US20260055081A1, “Metal Chelator Compounds, Coordination Complexes, and Methods of Preparation and Use Thereof” (University of Puerto Rico, priority 2022, published 2026)

Test system: Jurkat cells
Assay: Ferroptosis mechanistic cell viability study (ferrostatin-1)
Type: cell-based, human
Details: 10 μM Fer-1 pretreatment, 2 μM DefNEtTrp, 72 h
Method: Ferroptosis mechanistic cell viability study. Jurkat cells were seeded into 96-well plates, as indicated in the MTT assay described above The cells were treated with 10 μM of the ferroptosis inhibitor ferrostatin-1 (Fer-1). Another group of cells were treated with media alone. After 1 h incubation, half of the cells supplemented with Fer-1 were treated with 2 μM DefNEtTrp or 25 μM [Fe(citrate)2]^5−, as positive control, while the other half was treated with media alone. The final percentage of DMF was maintained at 0.5% (v/v). The MTT assay was performed with these samples (n=6). A student t-test was performed to evaluate the difference in the viability of cells treated with DefNEtTrp or [Fe(citrate)2]^5− and supplemented with and without Fer-1.

Compound: Nc1cccnc1/C=N/NC(=S)NCCNC(=O)c1ccc(-n2nc(-c3ccccc3O)nc2-c2ccccc2O)cc1 [DefNEtTrp, deferasirox nitrogen ethyl triapine]
- change in cell viability of cells pretreated with Fer-1: two-fold increase in the cell viability
